Data from PubChem BioAssay (NCI).
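Cells were grown in 96-well plates and exposed to each compound for 48 hours at five concentrations; endpoints were interpolated linearly between bracketing concentrations, or set to the highest concentration if not reached. At the TGI there is no net growth.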

Columns and labels:
Test in all cases: DTP human tumour cell line panel, 48 h
[1] = test system: MALME-3M melanoma
[2] = test system: IGROV1 ovarian
[3] = test system: OVCAR-4 ovarian
[4] = test system: HCT-116 colon
[5] = test system: HOP-92 NSCLC
[6] = test system: ACHN renal
[7] = test system: M14 melanoma
[8] = test system: SNB-19 CNS
[9] = test system: HT29 colon
[10] = test system: NCI-H460 lung
[11] = test system: A549 NSCLC

SMILES | TGI [1] [µM] | TGI [2] [µM] | TGI [3] [µM] | TGI [4] [µM] | TGI [5] [µM] | TGI [6] [µM] | TGI [7] [µM] | TGI [8] [µM] | TGI [9] [µM] | TGI [10] [µM] | TGI [11] [µM]
Cc1ccc([N+](=O)[O-])cc1S(=O)(=O)Nc1ccc(C2=NN(S(=O)(=O)c3cc([N+](=O)[O-])ccc3C)C(c3cccs3)C2)cc1 (configuration not stated) | > 100 | > 100 | > 100 | 77 | > 100 | > 100 | > 100 | > 100 | > 100 | 94.6 | > 100
Cc1cccc2c(=O)c3cccc([C@H](C)C(=O)O)c3oc12 | > 100 | > 100 | > 100 | > 100 | > 100 | > 100 | > 100 | > 100 | > 100 | > 100 | > 100
COc1ccc(N2C(=O)C3ON(Cc4ccc(CC(N)=O)cc4)C(c4c5ccccc5c(C)c5ccccc45)C3C2=O)cc1 (configuration not stated) | > 100 | > 100 | 96.5 | 56.9 | > 100 | 77.9 | > 100 | > 100 | 35 | 30.8 | > 100
CCN(CC)Cc1cc(N=Nc2c(O)ccc3c(N=Nc4ccc(O)c(CN(CC)CC)c4)c(O)ccc23)ccc1O | 21.5 | 19 | 7.21 | 4.38 | 22.8 | 7.71 | > 38.5 | 15.6 | 9.31 | 7.54 | > 23.5
Cc1cc2ncn(CC(=O)O)c2cc1C | > 100 | > 100 | > 100 | > 100 | > 100 | > 100 | > 100 | > 100 | > 100 | > 100 | > 100
CCOC(CBr)OC1C(=O)OCC1(C)C (configuration not stated) | > 100 | > 100 | > 100 | > 100 | > 100 | > 100 | > 100 | > 100 | > 100 | > 100 | > 100
CC(O)C(CO)NC(=O)C1CSSCC(NC(=O)C(N)Cc2ccccc2)C(=O)NC(Cc2ccccc2)C(=O)NC(Cc2c[nH]c3ccccc23)C(=O)NC(CCCCN)C(=O)NC(C(C)O)C(=O)N1 (configuration not stated) | > 100 | > 100 | > 100 | > 100 | > 100 | > 100 | > 100 | > 100 | > 100 | > 100 | > 100
O=C(CCCc1cccc2[nH]c3c(c12)CN(Cc1ccccc1)CC3)c1ccc(F)cc1 | > 100 | > 100 | > 100 | > 100 | > 100 | > 100 | > 100 | > 100 | > 45.8 | > 100 | > 100
COc1cc2ncnc(NS(=O)(=O)c3cc4ccccc4s3)c2cc1OC | > 100 | > 100 | > 100 | > 100 | > 100 | > 100 | > 100 | > 100 | > 100 | > 100 | > 100
CC(=O)OCC1OC(n2c(C)c(C)cc(C#N)c2=S)C(OC(C)=O)C(OC(C)=O)C1OC(C)=O (configuration not stated) | > 100 | > 100 | > 100 | > 100 | > 100 | > 100 | > 100 | > 100 | > 100 | > 100 | > 100
CCCCn1c(=O)[nH]c2c(N)ncnc21 | > 100 | > 100 | > 100 | > 100 | > 100 | > 100 | > 100 | > 100 | > 100 | > 100 | > 100
O=C1/C(=C/c2cccc([N+](=O)[O-])c2)N=C(c2ccccc2)N1c1nc2ccc(Sc3ccccc3)cc2[nH]1 | > 100 | > 100 | > 100 | > 100 | > 100 | > 100 | > 100 | > 100 | > 100 | > 100 | > 100
